This note sets out measurements from US10517889B2, “Modulators of SMAD7 expression” (Ionis Pharmaceuticals, Inc., priority 2017, dated 2019).

The % Inhibition is the share of the control response that was lost under treatment. The low end stands for a weak effect, the high end for a strong effect.

Strand notation (5' to 3'): a small letter for the sugar, then the base; units joined by * are phosphorothioate-linked, units joined directly phosphodiester-linked; [ ] holds rarer units or linkages, { } end groups; capitals alone tell only the bases. k = constrained ethyl (cEt); [5mC] = 5-methylcytosine; d = 2'-deoxy (DNA)

The test system of the first data set is human SMAD7 mRNA. Description: Antisense inhibition of human SMAD7 mRNA expression in Hep3B cells by 3-10-3 cEt gapmers, 10,000 nM, electroporation (Example 2). Format: cell-based. The settings on record: Hep3B cells, electroporation with 10,000 nM antisense oligonucleotide, approximately 24 hours, SMAD7 mRNA by RT-PCR (RTS5062), relative to untreated control cells. In a few lines: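 SMAD7 mRNA was measured by real-time PCR (RTS5062) with RiboGreen total-RNA normalization, about 24 h after 10,000 nM gapmer was delivered by electroporation into Hep3B cells at 20,000 per well. Gapmers were 16-mer 3-10-3 cEt, fully phosphorothioate; values are % inhibition versus untreated controls.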
Consider “799374 (antisense kT*kT*kG*d[5mC]*dA*d[5mC]*d[5mC]*dT*dT*dT*dT*dT*dA*kA*kA*k[5mC]) [compound 799374]”, for which the “% Inhibition” value was 30%. Still for that read-out and setting: the result for “799375 (antisense kG*k[5mC]*k[5mC]*dT*dA*dT*dA*d[5mC]*dT*dT*d[5mC]*dT*dG*kA*kA*kA) [compound 799375]” reads 10%; that for “799376 (antisense kG*k[5mC]*kA*dG*dG*dA*dG*dG*dA*dA*d[5mC]*d[5mC]*dT*kA*k[5mC]*k[5mC]) [compound 799376]”, 45%. With “799387 (antisense k[5mC]*k[5mC]*kA*dG*dG*dA*dG*d[5mC]*dT*dA*dA*dA*dT*kG*kG*kT) [compound 799387]”, the “% Inhibition” value is 22%. “799388 (antisense kT*kT*kG*d[5mC]*dA*dG*dA*dA*dT*dT*d[5mC]*d[5mC]*dA*kG*kG*kA) [compound 799388]”: the “% Inhibition” value worked out at 41%. On the same count and under the same terms, in the case of “799389 (antisense kA*kA*kA*dA*d[5mC]*dG*d[5mC]*dA*dG*dG*dA*dG*dG*k[5mC]*kG*kG) [compound 799389]” it was 27%; in that of “799390 (antisense k[5mC]*kA*kA*dA*dA*d[5mC]*dT*dT*dT*dT*dA*dA*dT*kT*kA*kG) [compound 799390]”, 0%; in that of “799391 (antisense k[5mC]*kG*k[5mC]*d[5mC]*d[5mC]*d[5mC]*dA*dG*d[5mC]*dA*dA*dA*dA*k[5mC]*kT*kT) [compound 799391]”, 0%. As for “799392 (antisense kT*kA*kT*dT*dA*dG*dA*d[5mC]*d[5mC]*dG*dG*d[5mC]*dA*k[5mC]*k[5mC]*kA) [compound 799392]”, the “% Inhibition” value came to 46%. Regarding “799393 (antisense kT*kG*k[5mC]*dT*dT*dT*dG*d[5mC]*dG*dG*dG*d[5mC]*d[5mC]*kA*k[5mC]*kT) [compound 799393]”, the “% Inhibition” value is 56%. “799394 (antisense kA*k[5mC]*kA*dG*dA*dG*dA*dG*d[5mC]*dT*dG*dG*dG*kT*kA*kT) [compound 799394]”: the “% Inhibition” value was determined as 33%. In the case of “799395 (antisense kT*kT*kA*d[5mC]*dA*dA*dA*dT*dA*d[5mC]*dA*dG*dA*kG*kA*kG) [compound 799395]”, the “% Inhibition” value came to 62%.

On to “799407 (antisense kT*kG*k[5mC]*dA*dG*dG*dA*dA*dA*d[5mC]*d[5mC]*d[5mC]*dA*kA*kG*kG) [compound 799407]”, for which the “% Inhibition” value is 33%. The same measure, in the same setting: in the case of “799408 (antisense kT*kT*kA*dA*dA*dT*d[5mC]*d[5mC]*dT*dG*dA*dG*dA*kA*k[5mC]*kA) [compound 799408]” it was 27%. In the case of “799409 (antisense k[5mC]*kT*kA*d[5mC]*d[5mC]*dT*dA*dA*dT*dG*dT*d[5mC]*dA*kA*k[5mC]*kA) [compound 799409]”, the “% Inhibition” value is reported as 34%.

Take “799411 (antisense kT*kG*kG*dA*dG*dA*dA*d[5mC]*dT*dT*dT*dT*d[5mC]*kT*k[5mC]*k[5mC]) [compound 799411]”: the “% Inhibition” value is listed as 0%.

As for “799413 (antisense kA*kT*kT*dA*d[5mC]*dT*dG*dA*dT*dG*d[5mC]*dT*dA*kA*kA*kT) [compound 799413]”, the “% Inhibition” value amounted to 34%.

Consider “799414 (antisense k[5mC]*kA*kA*dA*dA*d[5mC]*d[5mC]*dA*dG*d[5mC]*d[5mC]*d[5mC]*d[5mC]*kA*kG*kA) [compound 799414]”, for which the “% Inhibition” value is 34%. Regarding “799415 (antisense kG*k[5mC]*k[5mC]*dA*d[5mC]*dA*dG*d[5mC]*dA*dG*d[5mC]*dT*dG*kG*k[5mC]*kA) [compound 799415]”, the “% Inhibition” value stood at 0%.

As for “799426 (antisense kG*k[5mC]*kT*dT*dA*dA*dA*dT*dT*dA*dT*dA*dG*k[5mC]*kA*kA) [compound 799426]”, the “% Inhibition” value is reported as 7%. “799427 (antisense kG*kT*k[5mC]*d[5mC]*dA*dG*dG*d[5mC]*d[5mC]*dT*d[5mC]*d[5mC]*d[5mC]*kA*kG*kA) [compound 799427]”: the “% Inhibition” value amounted to 20%.

For “799428 (antisense kG*kA*k[5mC]*d[5mC]*dA*d[5mC]*dA*d[5mC]*dA*dG*dT*dA*d[5mC]*k[5mC]*kT*kA) [compound 799428]”, the “% Inhibition” value worked out at 47%.

Take “799430 (antisense kA*kG*k[5mC]*d[5mC]*dA*d[5mC]*dA*dA*dG*dT*d[5mC]*dA*d[5mC]*kA*kA*k[5mC]) [compound 799430]”: the “% Inhibition” value was determined as 29%.

Staying with this data set, now noted: Hep3B cells, electroporation with 10,000 nM antisense oligonucleotide, approximately 24 hours, primer probe set RTS5062, relative to untreated control cells.
Take “799377 (antisense kT*kT*kG*d[5mC]*dA*dG*dG*dT*dG*dA*d[5mC]*dT*dG*kG*kA*kG) [compound 799377]”: the “% inhibition of SMAD7 mRNA expression” value is 15%. Regarding “799378 (antisense kG*kA*kA*dT*dA*d[5mC]*dT*dG*dA*dG*dA*dA*dA*kA*k[5mC]*k[5mC]) [compound 799378]”, the “% inhibition of SMAD7 mRNA expression” value worked out at 46%. With “799379 (antisense kT*kT*kT*dG*dA*dT*dA*dG*dT*d[5mC]*d[5mC]*d[5mC]*dT*kA*kT*kG) [compound 799379]”, the “% inhibition of SMAD7 mRNA expression” value worked out at 0%. Take “799380 (antisense k[5mC]*kT*k[5mC]*d[5mC]*dT*dA*d[5mC]*dT*dG*dT*dA*dA*dG*kA*kG*kG) [compound 799380]”: the “% inhibition of SMAD7 mRNA expression” value was 1%. For the substance “799381 (antisense kA*kA*k[5mC]*dA*dG*dA*dT*d[5mC]*dT*dA*dT*d[5mC]*dT*k[5mC]*k[5mC]*kT) [compound 799381]”, the “% inhibition of SMAD7 mRNA expression” value turned out to be 54%. “799383 (antisense k[5mC]*kA*k[5mC]*dA*dA*dA*dA*dA*d[5mC]*d[5mC]*dA*dA*dG*kG*kT*kT) [compound 799383]”: the “% inhibition of SMAD7 mRNA expression” value is reported as 40%.

As for “799384 (antisense kG*kG*k[5mC]*dA*d[5mC]*dA*dA*dA*dA*dA*d[5mC]*d[5mC]*dA*kA*kG*kG) [compound 799384]”, the “% inhibition of SMAD7 mRNA expression” value was found to be 40%.

Regarding “799385 (antisense kT*kG*k[5mC]*d[5mC]*d[5mC]*dA*dA*d[5mC]*d[5mC]*d[5mC]*dT*dT*d[5mC]*kA*k[5mC]*kT) [compound 799385]”, the “% inhibition of SMAD7 mRNA expression” value turned out to be 31%. As to “799386 (antisense kA*kG*kG*dA*dG*d[5mC]*dT*dA*dA*dA*dT*dG*dG*kT*kG*k[5mC]) [compound 799386]”, the “% inhibition of SMAD7 mRNA expression” value is reported as 12%. In the case of “799397 (antisense kA*kA*kA*dA*d[5mC]*dA*dG*dA*dG*d[5mC]*dT*dT*dG*kG*kT*kA) [compound 799397]”, the “% inhibition of SMAD7 mRNA expression” value is on record as 27%. Take “799398 (antisense k[5mC]*kT*kT*dG*dG*dA*dA*dA*dA*dT*dG*dA*dA*k[5mC]*kT*kT) [compound 799398]”: the “% inhibition of SMAD7 mRNA expression” value came to 48%. Regarding “799399 (antisense kT*k[5mC]*k[5mC]*dA*dA*dA*dT*dT*dT*dG*dA*dA*dG*kA*kA*kT) [compound 799399]”, the “% inhibition of SMAD7 mRNA expression” value came to 0%. Take “799400 (antisense kG*kG*kA*dA*dA*dA*d[5mC]*d[5mC]*dT*d[5mC]*d[5mC]*dA*dA*kA*kT*kT) [compound 799400]”: the “% inhibition of SMAD7 mRNA expression” value stood at 0%. For the substance “799401 (antisense kT*k[5mC]*kT*dT*dT*dT*dA*dA*dG*dG*dA*dA*dA*kA*k[5mC]*k[5mC]) [compound 799401]”, the “% inhibition of SMAD7 mRNA expression” value was 53%. Regarding “799403 (antisense kG*k[5mC]*kT*dA*dA*dG*dG*dT*d[5mC]*dA*d[5mC]*dT*dG*kT*kT*k[5mC]) [compound 799403]”, the “% inhibition of SMAD7 mRNA expression” value was found to be 0%. As for “799405 (antisense k[5mC]*kT*kG*dG*dG*dA*dA*d[5mC]*dA*dT*dT*dT*dA*k[5mC]*k[5mC]*k[5mC]) [compound 799405]”, the “% inhibition of SMAD7 mRNA expression” value was 28%.

Regarding “799416 (antisense kA*kA*kG*dA*d[5mC]*d[5mC]*dT*dG*dG*dG*dT*d[5mC]*dA*kG*k[5mC]*kG) [compound 799416]”, the “% inhibition of SMAD7 mRNA expression” value is given as 41%. As for “799417 (antisense kG*kG*k[5mC]*d[5mC]*dA*dA*dA*d[5mC]*dA*dT*dT*d[5mC]*dT*k[5mC]*k[5mC]*k[5mC]) [compound 799417]”, the “% inhibition of SMAD7 mRNA expression” value came to 26%. Still for that read-out and setting: the result for “799418 (antisense kG*kT*kA*dA*dA*dT*dG*dG*dT*d[5mC]*d[5mC]*dA*dT*kG*kT*kA) [compound 799418]” reads 12%; that for “799419 (antisense kA*kA*kA*dA*dA*dT*dT*d[5mC]*dA*dA*d[5mC]*d[5mC]*dT*kA*kA*kG) [compound 799419]”, 0%.

In the case of “799420 (antisense k[5mC]*kA*kA*dG*dA*d[5mC]*d[5mC]*dA*dA*dA*dA*dA*dT*kT*k[5mC]*kA) [compound 799420]”, the “% inhibition of SMAD7 mRNA expression” value is on record as 32%.

In the case of “799421 (antisense kA*kA*k[5mC]*d[5mC]*d[5mC]*dA*dA*dG*dA*d[5mC]*d[5mC]*dA*dA*kA*kA*kA) [compound 799421]”, the “% inhibition of SMAD7 mRNA expression” value is 63%. As to “799422 (antisense kG*kA*kT*dT*dT*dT*dA*dA*d[5mC]*dA*dG*dT*dT*kG*kT*k[5mC]) [compound 799422]”, the “% inhibition of SMAD7 mRNA expression” value was 33%. Still for that read-out and setting: in the case of “799423 (antisense kT*kA*k[5mC]*d[5mC]*dA*dG*dG*d[5mC]*d[5mC]*d[5mC]*d[5mC]*dA*dG*k[5mC]*k[5mC]*k[5mC]) [compound 799423]” it was 14%. As for “799424 (antisense k[5mC]*kT*k[5mC]*d[5mC]*dA*dA*dA*dG*dG*d[5mC]*dT*dG*d[5mC]*kA*kG*kG) [compound 799424]”, the “% inhibition of SMAD7 mRNA expression” value turned out to be 34%. In the case of “799425 (antisense kA*kT*kT*dA*dT*dA*dG*d[5mC]*dA*dA*dA*dA*dT*kG*kG*kA) [compound 799425]”, the “% inhibition of SMAD7 mRNA expression” value is given as 23%.
